# Data taken from ChEMBL document CHEMBL3808343, “Glutaminase GLS1 Inhibitors as Potential Cancer Treatment” (ACS Med Chem Lett, 2016).
# Key:
# [1] = system: NCI-H1703; assay: Antiproliferative activity against human NCI-H1703 cells assessed as reduction in cell growth after 5 days by Sytox Green dye based assay; assay type: functional; details: NCI-H1703, 120 h
# [2] = molecular target: T1, Glutaminase kidney isoform, mitochondrial (Homo sapiens, UniProt O94925); assay: Inhibition of GLS1 in human PC3 cells assessed as cellular glutamate depletion levels after 6 hrs by Glutamate Oxidase/ AmplexRed coupled assay; assay type: cell-based, PC-3
# T1 sequence (O94925 whole entry): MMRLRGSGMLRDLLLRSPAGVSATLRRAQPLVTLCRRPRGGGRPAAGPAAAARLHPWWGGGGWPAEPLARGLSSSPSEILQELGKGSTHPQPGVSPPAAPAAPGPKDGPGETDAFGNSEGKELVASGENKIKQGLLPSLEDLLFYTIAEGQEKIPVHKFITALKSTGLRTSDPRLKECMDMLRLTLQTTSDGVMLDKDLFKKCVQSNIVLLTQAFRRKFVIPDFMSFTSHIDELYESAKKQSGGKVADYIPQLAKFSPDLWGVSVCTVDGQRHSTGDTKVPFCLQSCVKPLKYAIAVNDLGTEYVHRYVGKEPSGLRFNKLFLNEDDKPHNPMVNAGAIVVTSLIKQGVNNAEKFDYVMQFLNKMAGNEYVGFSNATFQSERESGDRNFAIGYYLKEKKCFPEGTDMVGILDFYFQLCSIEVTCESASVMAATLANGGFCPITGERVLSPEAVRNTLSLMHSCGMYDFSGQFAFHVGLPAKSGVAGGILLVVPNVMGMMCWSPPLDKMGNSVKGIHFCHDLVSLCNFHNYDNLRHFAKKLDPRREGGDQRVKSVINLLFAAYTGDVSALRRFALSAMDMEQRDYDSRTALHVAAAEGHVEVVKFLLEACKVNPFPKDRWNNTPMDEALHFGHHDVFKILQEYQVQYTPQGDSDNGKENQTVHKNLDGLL
# [3] = molecular target: T1, Glutaminase kidney isoform, mitochondrial
# Description: Inhibition of 6His-tagged GLS1 (63-669 residues) (unknown origin) expressed in Escherichia coli using glutamine as substrate after 15 mins by Glutamate Oxidase/ AmplexRed coupled assay
Structure (SMILES),IC50 [1],IC50 [2],IC50 [3]
CO[C@H](C(=O)Nc1nnc(N[C@@H]2CCN(c3cncnn3)C2)s1)c1ccccc1,3.24 nM,,
COc1cc([C@@H](OC)C(=O)Nc2nnc(N[C@@H]3CCN(c4cncnn4)C3)s2)ccc1F,107 nM,4.99 nM,70.7 nM
COc1ccc([C@H](OC)C(=O)Nc2nnc(N[C@@H]3CCN(c4cccnn4)C3)s2)cc1,10.8 nM,,
